For data set [1], the target named is T1, N-type calcium channels in HEK-293 cell (Homo sapiens, UniProt Q00975).
T1 construct: expressed in transfected cells; host or cells: HEK-293 (clone HEK-293-N26)
The experiment in a line: Test A: Calcium imaging, inhibition of N-type calcium channels (FLUO-3, 80 mM K+ depolarisation). The class given is cell-based. The following applies: FLUO-3 charged recombinant HEK-293 cells, potassium depolarisation (80 mM K+). The source says:
(§1) The concentration of the half-maximum inhibition (IC50-values) for the selected substances is in the submicro- to micromolar range. Independently of this optical method of measurement, the inhibitory effect on the N-type calcium channels was confirmed independently, by an electrophysiological method, using the patch-clamp technique on the same type of cells (Test B).
Inhibition of N-type calcium channels in HEK-293 cell

The target of data set [2] is T2, N-type calcium channel in HEK-293-N26 cells (Homo sapiens, UniProt Q00975).
T2 construct: expressed in transfected cells; host or cells: HEK-293 (clone HEK-293-N26)
The experiment in a line: Test B: Patch-clamp tests, N-type calcium channel blockade. The class given is cell-based.
From the text: as §1
Test B: Patch-clamp Tests
N-type calcium channel blockade in HEK-293-N26 cells

For data set [3], the system named is rats. The experiment in a line: Test C: Formalin paw test. The following applies: po, rat, p.o., read-out: ED50 values Test C, inhibition of flinching. The class given is in vivo. Here is the method:
Formalin Paw Test (Test C)
Male rats (Chbb: THOM) weighing 250-300 grams are used. 20 μl of a 2% formaldehyde solution is injected into the plantar region of the right hind paw. Immediately afterwards, the number of flinches (spasms of the affected hind paw) and the time spent licking the affected paw are recorded. After 5 minutes in each case the values are collated into epochs. Time-activity curves for flinches and licking are plotted from the epoch values. Typically, two phases of the formalin activity (flinches, licking) are observed. A first phase of 0-10 minutes and a second phase of 10-60 minutes. Between the two phases the number of flinches and the duration of licking fall towards 0 (interphase). The areas under the curve for the first phase and for the second phase are determined from the timeactivity curves. Usually 5 animals are used in each case for the control, placebo and dose of active substance. The results of the doses of active substance are compared with those of the control and ED50 values are calculated. ED50 is the dose at which the control values are inhibited by 50%.
Test C: Formalin-paw Test (Rat)
Inhibition of flinching (ED50 values in mg/kg; p.o.)

Data set [4] relates to rats. The data set is described as follows: Test D: Chronic Constriction Injury (CCI, Bennett model), mechanohyperalgesia. The following applies: po, rat. The class given is in vivo. The source says: Chronic Constriction Injury (CCI, Bennett Model) (Test D)
The principle of the method is producing hyperalgesia and allodynia in the plantar region (the sole of the hind paw). Sprague-Dawley rats (Harlan) weighing 250-350 grams are used.
Under anaesthetic, four loose ligatures are placed on the sciatic nerve of the left hind paw at intervals of 2.5 mm in such a way that the perinerval circulation is affected but not prevented. This leads to extravasation and oedema, resulting in neuropathy of the nerves which innervate the planter region. The right hind paw is treated in the same way without the ligatures. Control tests for allodynia and/or hyperalgesia are carried out without the administration of any substance before and 8-10 days after the operation. Then substance tests are carried out at intervals of 2-3 days. The effects of the substance on the various parameters and ED50 values are calculated (=doses which inhibit by 50% the allodynic or hyperalgesic effects of the stimulation).
Mechano-hyperalgesia (Pin Prick)
The animals are placed in cages with a wire mesh base. Using a blunt needle (e.g. a large safety pin) the skin of the sole of the paw (Plantar-region) is touched so that an indentation is only just produced. Similarly, the sole of the paw is pinched gently with forceps. […] The number and duration of positive reactions of the operated and control paws are measured. […]

Where a name gives a salt, the structure may show the parent alone.

T2 sequence (Q00975 whole entry): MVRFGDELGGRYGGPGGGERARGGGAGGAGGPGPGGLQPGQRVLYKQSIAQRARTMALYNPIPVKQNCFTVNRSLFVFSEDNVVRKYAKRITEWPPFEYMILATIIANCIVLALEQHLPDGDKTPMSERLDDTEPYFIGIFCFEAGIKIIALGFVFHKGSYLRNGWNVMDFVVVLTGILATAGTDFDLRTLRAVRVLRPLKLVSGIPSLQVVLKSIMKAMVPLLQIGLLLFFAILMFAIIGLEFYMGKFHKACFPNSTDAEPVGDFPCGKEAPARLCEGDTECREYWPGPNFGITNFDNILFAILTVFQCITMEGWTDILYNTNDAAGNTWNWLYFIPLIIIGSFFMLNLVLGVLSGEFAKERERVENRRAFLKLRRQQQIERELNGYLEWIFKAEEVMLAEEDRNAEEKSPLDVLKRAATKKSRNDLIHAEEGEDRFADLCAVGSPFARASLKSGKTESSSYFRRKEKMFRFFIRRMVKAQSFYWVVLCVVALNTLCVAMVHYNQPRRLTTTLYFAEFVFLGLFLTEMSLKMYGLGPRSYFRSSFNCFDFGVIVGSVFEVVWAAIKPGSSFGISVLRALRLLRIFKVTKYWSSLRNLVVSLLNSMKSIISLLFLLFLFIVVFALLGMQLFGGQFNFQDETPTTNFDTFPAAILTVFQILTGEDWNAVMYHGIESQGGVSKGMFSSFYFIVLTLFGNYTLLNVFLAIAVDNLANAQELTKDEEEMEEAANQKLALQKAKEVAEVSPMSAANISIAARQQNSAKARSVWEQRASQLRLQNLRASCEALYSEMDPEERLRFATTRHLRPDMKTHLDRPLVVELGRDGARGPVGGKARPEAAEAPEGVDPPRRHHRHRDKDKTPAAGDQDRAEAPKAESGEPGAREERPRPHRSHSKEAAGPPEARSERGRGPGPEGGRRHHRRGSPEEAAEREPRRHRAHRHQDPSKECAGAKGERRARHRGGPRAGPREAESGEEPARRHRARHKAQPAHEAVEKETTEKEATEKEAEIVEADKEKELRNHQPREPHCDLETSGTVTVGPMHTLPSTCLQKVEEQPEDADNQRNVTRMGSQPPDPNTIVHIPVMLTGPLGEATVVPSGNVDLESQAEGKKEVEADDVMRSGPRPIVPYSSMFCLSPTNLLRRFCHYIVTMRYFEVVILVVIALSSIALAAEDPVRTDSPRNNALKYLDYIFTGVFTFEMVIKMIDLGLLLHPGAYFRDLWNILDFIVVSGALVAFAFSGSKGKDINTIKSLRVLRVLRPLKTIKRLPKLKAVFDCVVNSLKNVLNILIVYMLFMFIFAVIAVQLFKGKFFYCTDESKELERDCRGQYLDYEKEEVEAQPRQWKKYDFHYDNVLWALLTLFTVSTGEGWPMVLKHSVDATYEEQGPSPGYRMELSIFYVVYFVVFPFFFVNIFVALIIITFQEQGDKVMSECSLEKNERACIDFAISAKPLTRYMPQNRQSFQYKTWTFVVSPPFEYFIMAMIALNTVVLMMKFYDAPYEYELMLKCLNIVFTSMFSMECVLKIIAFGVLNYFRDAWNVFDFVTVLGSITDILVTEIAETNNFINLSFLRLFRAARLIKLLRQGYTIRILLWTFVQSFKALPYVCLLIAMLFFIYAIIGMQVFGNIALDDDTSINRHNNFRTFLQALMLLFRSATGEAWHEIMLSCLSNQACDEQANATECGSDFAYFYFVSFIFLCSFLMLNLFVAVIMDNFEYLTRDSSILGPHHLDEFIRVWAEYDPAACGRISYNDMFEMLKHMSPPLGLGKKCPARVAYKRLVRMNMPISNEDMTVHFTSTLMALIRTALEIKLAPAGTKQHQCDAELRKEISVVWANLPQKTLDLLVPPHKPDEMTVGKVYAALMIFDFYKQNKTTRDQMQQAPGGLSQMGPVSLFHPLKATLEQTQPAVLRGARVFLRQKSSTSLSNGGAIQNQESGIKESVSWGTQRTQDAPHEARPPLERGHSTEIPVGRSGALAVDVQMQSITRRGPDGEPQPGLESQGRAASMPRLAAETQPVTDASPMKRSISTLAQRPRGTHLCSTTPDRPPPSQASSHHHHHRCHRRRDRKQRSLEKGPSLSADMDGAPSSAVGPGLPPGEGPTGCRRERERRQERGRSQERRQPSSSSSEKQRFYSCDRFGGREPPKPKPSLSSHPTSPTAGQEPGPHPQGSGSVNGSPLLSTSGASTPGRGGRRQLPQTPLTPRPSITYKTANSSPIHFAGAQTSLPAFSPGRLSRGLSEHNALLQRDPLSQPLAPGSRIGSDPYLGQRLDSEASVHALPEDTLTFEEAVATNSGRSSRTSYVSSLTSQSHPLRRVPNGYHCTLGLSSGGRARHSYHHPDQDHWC
T2 sequence (P54289 25-956 partner limits assumed): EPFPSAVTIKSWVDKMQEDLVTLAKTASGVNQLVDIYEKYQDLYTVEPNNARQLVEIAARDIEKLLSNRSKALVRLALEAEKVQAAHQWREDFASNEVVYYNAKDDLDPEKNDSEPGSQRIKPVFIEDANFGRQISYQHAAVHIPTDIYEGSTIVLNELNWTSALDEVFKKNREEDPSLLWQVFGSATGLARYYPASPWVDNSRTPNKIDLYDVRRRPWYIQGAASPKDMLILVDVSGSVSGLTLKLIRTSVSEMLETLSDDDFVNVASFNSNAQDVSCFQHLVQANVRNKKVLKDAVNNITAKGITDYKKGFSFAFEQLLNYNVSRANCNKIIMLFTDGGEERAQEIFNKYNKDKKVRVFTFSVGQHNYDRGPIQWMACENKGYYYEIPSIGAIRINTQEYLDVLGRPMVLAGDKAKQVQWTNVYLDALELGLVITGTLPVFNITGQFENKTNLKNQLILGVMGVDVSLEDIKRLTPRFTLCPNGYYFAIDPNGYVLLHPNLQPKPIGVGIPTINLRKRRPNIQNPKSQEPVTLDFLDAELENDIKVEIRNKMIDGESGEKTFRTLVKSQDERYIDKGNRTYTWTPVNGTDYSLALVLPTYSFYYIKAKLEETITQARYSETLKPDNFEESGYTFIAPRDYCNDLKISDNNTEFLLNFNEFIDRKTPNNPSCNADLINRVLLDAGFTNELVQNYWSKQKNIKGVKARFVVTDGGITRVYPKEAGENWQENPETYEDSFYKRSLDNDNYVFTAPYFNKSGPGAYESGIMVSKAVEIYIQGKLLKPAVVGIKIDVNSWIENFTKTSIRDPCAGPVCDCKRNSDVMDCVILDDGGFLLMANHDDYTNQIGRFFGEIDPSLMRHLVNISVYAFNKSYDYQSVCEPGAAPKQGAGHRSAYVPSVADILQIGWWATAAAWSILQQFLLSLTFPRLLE
T2 sequence (P54289 957-1103 partner limits assumed): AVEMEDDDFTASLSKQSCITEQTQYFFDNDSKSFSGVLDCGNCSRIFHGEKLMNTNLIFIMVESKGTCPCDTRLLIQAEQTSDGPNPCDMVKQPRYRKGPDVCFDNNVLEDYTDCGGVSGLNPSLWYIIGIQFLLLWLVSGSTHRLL
T2 sequence (P54284 whole entry partner): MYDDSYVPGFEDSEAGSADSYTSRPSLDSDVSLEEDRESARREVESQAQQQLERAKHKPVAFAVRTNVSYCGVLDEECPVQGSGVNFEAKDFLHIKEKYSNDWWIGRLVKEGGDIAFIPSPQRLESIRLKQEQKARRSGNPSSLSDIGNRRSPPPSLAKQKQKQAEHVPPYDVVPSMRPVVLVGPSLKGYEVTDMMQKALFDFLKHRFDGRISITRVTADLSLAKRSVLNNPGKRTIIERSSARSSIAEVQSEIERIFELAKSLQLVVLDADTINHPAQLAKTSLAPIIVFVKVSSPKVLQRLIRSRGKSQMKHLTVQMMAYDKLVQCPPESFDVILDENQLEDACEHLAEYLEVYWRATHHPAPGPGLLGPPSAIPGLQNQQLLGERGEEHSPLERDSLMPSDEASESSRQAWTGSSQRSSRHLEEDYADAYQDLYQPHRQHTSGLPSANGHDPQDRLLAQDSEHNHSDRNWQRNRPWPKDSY
T1 sequence (Q00975 whole entry): as the sequence (Q00975 whole entry) above
T1 sequence (P54289 25-956 partner limits assumed): as the sequence (P54289 25-956 partner limits assumed) above
T1 sequence (P54289 957-1103 partner limits assumed): as the sequence (P54289 957-1103 partner limits assumed) above
T1 sequence (P54284 whole entry partner): as the sequence (P54284 whole entry partner) above

`CC1(C)CN=C(c2ccccc2Oc2cc(C(F)(F)F)cc(C(F)(F)F)c2)c2ccccc21` (as salt: hydrochloride) [Example 9, 3,4-dihydro-4,4-dimethyl-1-[2-(3,5-ditrifluoromethyl)phenoxy]phenyl-isoquinoline hydrochloride] registered a melting point of 211 to 212 °C.
The molecule `COc1cc2c(cc1OC)C(c1ccc(Oc3ccccc3)cc1)=NCC2` (as salt: salt) [Example 1] came in with a melting point of 209 to 210 °C.
In turn, `CCCCCCOc1ccc(C2=NCCc3cc(OC)c(OC)cc32)cc1` (as salt: salt) [Example 2] registered a melting point of 172 °C.
On the same count and under the same terms, as for `COc1cc2c(c(OC)c1OC)CCN=C2c1ccc(Oc2ccccc2)cc1` (as salt: salt) [Example 3], the figure is 173 to 175 °C.
Molecule `COc1cc2c(cc1OC)C(C)(C)CN=C2c1ccc(Oc2ccc(C(F)(F)F)cc2)cc1` (as salt: salt) [Example 5] registered a melting point of 195 to 198 °C.
On the same count and under the same terms, the same measure for `COc1cc2c(cc1OC)C(c1ccc(Oc3ccc(C(F)(F)F)cc3)cc1)=NCC2` (as salt: salt) [Example 6]: 218 °C; for `COc1cc2c(cc1OC)C(C)(C)CN=C2c1ccc(Oc2cc(C(F)(F)F)cc(C(F)(F)F)c2)cc1` (as salt: salt) [Example 7]: 197 °C; for `COc1cc2c(cc1OC)C(C)(C)CN=C2c1ccccc1Oc1cc(C(F)(F)F)cc(C(F)(F)F)c1` (as salt: salt) [Example 8]: 172 to 173 °C.
Still for that read-out and setting: as for `COc1cc2c(cc1OC)C(c1ccc(Oc3cc(C(F)(F)F)cc(C(F)(F)F)c3)cc1)=NCC2` (as salt: salt) [Example 10], the figure is 215 °C.
`CCCCCCOc1ccc(C2=NCC(C)(C)c3ccccc32)cc1` (as salt: salt) [Example 11] had a melting point of 186 to 187 °C.
The same measure, in the same setting: as for `COc1ccc2c(c1)C(C)(C)CN=C2c1ccccc1Oc1cc(C(F)(F)F)cc(C(F)(F)F)c1` (as salt: salt) [Example 12], the figure is 122 to 123 °C; as for `COc1cc2c(cc1OC)C(C)(C)CN=C2c1cccc(Oc2cc(C(F)(F)F)cc(C(F)(F)F)c2)c1` (as salt: salt) [Example 14], 210 to 211 °C; as for `COc1cc2c(cc1OC)C(C)(C)CN=C2c1cccc(Oc2ccccc2)c1` (as salt: salt) [Example 15], 181 °C.
Take `CC1(C)CN=C(c2ccc(Oc3cc(C(F)(F)F)cc(C(F)(F)F)c3)cc2)c2ccccc21` (as salt: salt) [Example 16]: the melting point lay within 217 to 218 °C.
On the same count and under the same terms, as for `FC(F)(F)c1ccc(Oc2ccc(C3=NCCc4ccccc43)cc2)cc1` (as salt: salt) [Example 17], the figure is 234 to 235 °C.
`COc1cc2c(cc1OC)C(c1ccc(Oc3ccccc3)cc1)=NCC2` [Example 1]: the figures for the IC50 in data set [1] and in data set [2] were 1.86 µM and 1.8 µM, respectively. Moreover, in data set [3], the 50% effective dose (ED50) is 10 mg/kg.
With `CCCCCCOc1ccc(C2=NCCc3cc(OC)c(OC)cc32)cc1` [Example 2], the IC50 was 1.2 µM in data set [1] and 1.09 µM in data set [2].
As to `COc1cc2c(c(OC)c1OC)CCN=C2c1ccc(Oc2ccccc2)cc1` [Example 3], in data set [1], the IC50 was determined as 1.94 µM.
Molecule `COc1cc2c(cc1OC)C(C)(C)CN=C2c1ccc(Oc2ccccc2)cc1` [Example 4] came in with a melting point of 141 to 142 °C. The IC50 in data set [1] turned out to be 1.83 µM.
For `COc1cc2c(cc1OC)C(C)(C)CN=C2c1ccc(Oc2ccc(C(F)(F)F)cc2)cc1` [Example 5], the IC50 in data set [1] was 0.82 µM; in data set [2], 1.33 µM. Moreover, the ED50 in data set [3] was determined as 15 mg/kg; in data set [4] it was 10 mg/kg.
Consider `COc1cc2c(cc1OC)C(c1ccc(Oc3ccc(C(F)(F)F)cc3)cc1)=NCC2` [Example 6], for which the results for the IC50 in data set [1] and in data set [2] were 0.94 µM and 1.12 µM, respectively.
The matching figures for `COc1cc2c(cc1OC)C(C)(C)CN=C2c1ccc(Oc2cc(C(F)(F)F)cc(C(F)(F)F)c2)cc1` [Example 7]: 1.26 µM and 1 µM.
For `COc1cc2c(cc1OC)C(C)(C)CN=C2c1ccccc1Oc1cc(C(F)(F)F)cc(C(F)(F)F)c1` [Example 8], in that order: 3.16 µM and 1.7 µM.
`CC1(C)CN=C(c2ccccc2Oc2cc(C(F)(F)F)cc(C(F)(F)F)c2)c2ccccc21` [Example 9, 3,4-dihydro-4,4-dimethyl-1-[2-(3,5-ditrifluoromethyl)phenoxy]phenyl-isoquinoline hydrochloride]: the figures for the IC50 in data set [1] and in data set [2] were 3.98 µM and 0.26 µM, respectively. The ED50 in data set [3] turned out to be 10 mg/kg.
On to `COc1cc2c(cc1OC)C(c1ccc(Oc3cc(C(F)(F)F)cc(C(F)(F)F)c3)cc1)=NCC2` [Example 10], for which the IC50 in data set [1] came to 1.95 µM.
Still for that read-out and setting: the same measure for `CCCCCCOc1ccc(C2=NCC(C)(C)c3ccccc32)cc1` [Example 11]: 3.26 µM.
For `COc1ccc2c(c1)C(C)(C)CN=C2c1ccccc1Oc1cc(C(F)(F)F)cc(C(F)(F)F)c1` [Example 12], the figures for the IC50 in data set [1] and in data set [2] were 5.54 µM and 1.6 µM, respectively.
In the case of `COc1cc2c(cc1OC)C(C)(C)CN=C2c1cccc(Oc2cc(C(F)(F)F)cc(C(F)(F)F)c2)c1` [Example 14], the IC50 in data set [1] is 1.61 µM.
Same read-out and setting: as for `COc1cc2c(cc1OC)C(C)(C)CN=C2c1cccc(Oc2ccccc2)c1` [Example 15], the figure is 1.62 µM.
With `CC1(C)CN=C(c2ccc(Oc3cc(C(F)(F)F)cc(C(F)(F)F)c3)cc2)c2ccccc21` [Example 16], the IC50 in data set [2] was determined as 1.22 µM.
In the case of `FC(F)(F)c1ccc(Oc2ccc(C3=NCCc4ccccc43)cc2)cc1` [Example 17], in data set [2], the IC50 was found to be 8.2 µM.
